Assay results published in patent publication US9373800B2, “Organic light emitting element having lithium—boron complex” (CANON KABUSHIKI KAISHA, priority 2014, dated 2016).

Assay: Evaluation of stability to water (100 nm deposited film, water dropped, thickness step height meter)
Assay type: physicochemical
Settings: for State of the film after water was dropped, After 1 min / State of the film after water was dropped, After 10 min: 100 nm film deposited on glass substrate, water dropped onto film, Alpha-Step; for State of the film after water was dropped, After 1 min: after 1 minute; for Dissolution of the film in water (text summary of Table 1): film soaked in water
Description: Water was dropped onto the films, and the states of the films were examined after 1 minute and 10 minutes with a thickness step height meter (Alpha-Step).

Structure (SMILES) | State of the film after water was dropped, After 1 min | State of the film after water was dropped, After 10 min | Dissolution of the film in water (text summary of Table 1)
[F-].[Li+] [Comparative compound 1, lithium fluoride] | Dissolved | Dissolved | dissolved immediately
[Cs+].[F-] [Comparative compound 2, cesium fluoride] | Dissolved | Dissolved | dissolved immediately
[Li+].c1cnn([B-](n2cccn2)(n2cccn2)n2cccn2)c1 [Comparative compound 3] | Partially dissolved | Dissolved | gradually dissolved
